Reference: US20240197650A1, “Combination of Cinnamaldheyde and Eugenol with Antimycotic Activity” (priority 2021, published 2024)
≈ marks a conversion by molar mass, not a printed value.

Columns and labels:
[1] = tested on: C. albicans; experiment: Disk diffusion method, C. albicans strains; type: cell-based
Method: (§1) A total of eighteen strains belonging to Candida spp. (15 C. albicans, 2 C. glabrata and 1 C. lusitaniae) derived from a collection of vaginal strains isolated in CHROMAgar Candida (BD Italia SpA, Milan, Italy) were grown on Potato Dextrose Agar (Oxoid Thermofisher SpA, Milan, Italy) at 35° C. for 24 hours.
(§2) Colonies were re-suspended in sterile saline at a density corresponding to #0.5 McFarland (opacity standard). #0.5 McF correspond to 1.4×10^6 colony forming units (CFU)/ml for C. albicans, 4.3×10^6 CFU/ml for C. glabrata and 3×10^6 CFU/ml for C. lusitaniae [Guinea J. et al., Rapid antifungal susceptibility determination for yeast isolates by use of Etest performed directly on blood samples from patients with fungemia, J Clin Microbiol. 2010 June, 48(6): 2205-12]. Then, the sensitivity test vs the two oils has been performed. The disk diffusion method was carried out as follows: for each tested strain, 4 plates of Potato Dextrose Agar (PDA) were seeded in 3 directions to produce a confluent growth, by sterile swab soaked in the cell suspension. Sorbent paper disks (Oxoid Thermofisher SpA, Milan, Italy) 6.0 mm diameter were placed on the agar surface and added with 10 μl of each essential oil. Disks soaked with 10 μg amphotericin B were used as positive control. Also disks of chlortrimazole (from 10 μg to 40 μg) were used, but the inhibition rings could not be clearly read due to the formation of a re-growth ring. Disks soaked with 10 μl pure dimethylsulphoxide (DMSO, Sigma-Aldrich, St. Louis, MO, USA) were used as negative control. The plates were incubated at 35° C. for 24 hours. All the experiments were carried out in duplicate. The inhibiting effect of the oils were considered to be effective when the inhibition ring was equal or greater than that caused by amphotericin B. For amphotericin B, an inhibition zone (IZ)≥15 mm was considered as “sensitivity”, from 10 to 14 mm as “intermediate sensitivity” and <10 mm as “resistance” [Kauser et al., Agreement of Direct Antifungal Susceptibility Testing from Positive Blood Culture Bottles with Conventional Method for Candida Species, J Clin Microbiol. 2016 February, 54(2):343-34].

[2] = tested on: C. lusitaniae; experiment: Microdilution method MIC/MFC, C. lusitaniae strain; type: cell-based; conditions: C. lusitaniae 1
Method: as §1
(§3) The antifungal activity of amphotericin B and of cinnamaldheyde and eugenol were tested with the microdilution method as reported by Bona et al. [Bona et al., Sensitivity of Candida albicans to essential oils: are they an alternative to antifungal agents? J Appl Microbiol. 2016 December, 121(6): 1530-1545] with small changes. All the 18 Candida spp strains were tested. For each isolated, the colonies deriving from cultures (24 hours) in PDA were diluted in saline up to a concentration of 2×10^3 CFU/ml (so obtaining a final concentration of 10 3CGU/ml). Cinnamaldehyde and eugenol were dissolved in DMSO (80% oil, 20% DMSO), then diluted in Sabouraud broth up to a concentration of 8% v/v (so obtaining a final concentration of 4% v/v). Then, in a 96-well microtiter plate ½ serial dilution of amphotericin B (range 32-0.032 μg/ml, for a final range of 16-0.016 μg/ml) and of the essential oils (range 8-0.004% v/v, for a final range of 4-0.002% v/v) were carried out. Each well was then injected with 100 μl of cell suspension. The negative control contained DMSO diluted in Sabouraud broth (at 2% v/v, for a final concentration of 1% v/v). […] Each experiment was carried out in duplicate. The Minimum Inhibitory Concentration (MIC) was determined as the concentration of the oils in the first well which is not cloudy. The Minimum Fungicidal Concentration (MFC) was determined as the lowest concentration of the oils, with the agar culture showing the complete absence of fungal growth. The determination of the amphotericin B MIC was carried out also according to the EUCAST guidelines (cutoff 1 μg/ml) [https://eucast.org/astoffungi/clinicalbreakpointsforantifungals], all the results being consistent.

[3] = tested on: C. lusitaniae; experiment: Disk diffusion method, C. lusitaniae strain; type: cell-based; conditions: C. lusitaniae 1
Method: as §1
Colonies were re-suspended in sterile saline at a density corresponding to #0.5 McFarland (opacity standard). #0.5 McF correspond to 1.4×10^6 colony forming units (CFU)/ml for C. albicans, 4.3×10^6 CFU/ml for C. glabrata and 3×10^6 CFU/ml for C. lusitaniae [Guinea J. et al., Rapid antifungal susceptibility determination for yeast isolates by use of Etest performed directly on blood samples from patients with fungemia, J Clin Microbiol. 2010 June, 48(6): 2205-12]. Then, the sensitivity test vs the two oils has been performed. The disk diffusion method was carried out as follows: for each tested strain, 4 plates of Potato Dextrose Agar (PDA) were seeded in 3 directions to produce a confluent growth, by sterile swab soaked in the cell suspension. Sorbent paper disks (Oxoid Thermofisher SpA, Milan, Italy) 6.0 mm diameter were placed on the agar surface and added with 10 μl of each essential oil. Disks soaked with 10 μg amphotericin B were used as positive control. Also disks of chlortrimazole (from 10 μg to 40 μg) were used, but the inhibition rings could not be clearly read due to the formation of a re-growth ring. Disks soaked with 10 μl pure dimethylsulphoxide (DMSO, Sigma-Aldrich, St. Louis, MO, USA) were used as negative control. The plates were incubated at 35° C. for 24 hours. All the experiments were carried out in duplicate. […]

[4] = tested on: C. glabrata; experiment: Disk diffusion method, C. glabrata strains; type: cell-based
Method: as §1, §2

[5] = tested on: C. albicans; experiment: Microdilution method MIC/MFC, C. albicans strains; type: cell-based
Method: as §1, §3

[6] = tested on: Candida spp.; experiment: Microdilution method MIC/MFC, 18 Candida spp. strains (distribution); type: cell-based; conditions: 18 strains
Method: as §1, §3

[7] = tested on: Candida spp.; experiment: Disk diffusion method, 18 Candida spp. strains (distribution); type: cell-based
Method: as §1, §2

[8] = tested on: C. glabrata; experiment: Microdilution method MIC/MFC, C. glabrata strains; type: cell-based
Method: as §1, §3

[9] = Additional essential oils in combination with cinnamaldehyde or eugenol; conditions: antimycotic activity
[10] = 18 strains, disk 10 μl oil or 10 μg amphotericin B, 35° C. 24 hours

With `C[C@@H]1[C@H](O)[C@@H](C)/C=C/C=C/C=C/C=C/C=C/C=C/C=C/[C@H](O[C@@H]2O[C@H](C)[C@@H](O)[C@H](N)[C@@H]2O)C[C@@H]2O[C@](O)(C[C@@H](O)C[C@@H](O)[C@H](O)CC[C@@H](O)C[C@@H](O)CC(=O)O[C@H]1C)C[C@H](O)[C@H]2C(=O)O` [Amphotericin B, amphotericin B, reference compound] the “Diameters of the inhibition rings (including 6.0 mm of the disk)” value (“Diameters of the inhibition rings” below) ([1]; C. albicans 1) was 13.0 mm, the “Diameters of the inhibition rings” value ([1]; C. albicans 2) was 15.5 mm and the “Diameters of the inhibition rings” value ([1]; C. albicans 3) was 16.0 mm. For the same compound, the “Diameters of the inhibition rings” value ([1]; C. albicans 4) was 19.5 mm, the “Diameters of the inhibition rings” value ([1]; C. albicans 5) was 16.0 mm and the “Diameters of the inhibition rings” value ([1]; C. albicans 6) was 16.0 mm. For the same compound, the “Diameters of the inhibition rings” value ([1]; C. albicans 7) was 16.0 mm, the “Diameters of the inhibition rings” value ([1]; C. albicans 8) was 20.5 mm and the “Diameters of the inhibition rings” value ([1]; C. albicans 9) was 12.0 mm. For the same compound, the “Diameters of the inhibition rings” value ([1]; C. albicans 10) was 15.0 mm, the “Diameters of the inhibition rings” value ([1]; C. albicans 11) was 14.5 mm and the “Diameters of the inhibition rings” value ([1]; C. albicans 12) was 16.5 mm. The “Diameters of the inhibition rings” value ([1]; C. albicans 13) was 16.0 mm, the “Diameters of the inhibition rings” value ([1]; C. albicans 14) was 19.0 mm and the “Diameters of the inhibition rings” value ([1]; C. albicans 15) was 15.5 mm. For the same compound, the MFC [2] was 0.250 µg/mL (≈ 0.271 µM), the MIC [2] was 0.125 µg/mL (≈ 0.135 µM) and the “Diameters of the inhibition rings” value [3] was 10.0 mm. The “Diameters of the inhibition rings” value ([4]; C. glabrata 1) was 15.0 mm, the “Diameters of the inhibition rings” value ([4]; C. glabrata 2) was 11.0 mm and the MFC ([5]; C. albicans 1) was 0.064 µg/mL (≈ 0.0693 µM). For the same compound, the MIC ([5]; C. albicans 1) was 0.032 µg/mL (≈ 0.0346 µM), the MFC ([5]; C. albicans 2) was 0.064 µg/mL (≈ 0.0693 µM) and the MIC ([5]; C. albicans 2) was 0.032 µg/mL (≈ 0.0346 µM). For the same compound, the MFC ([5]; C. albicans 3) was 0.064 µg/mL (≈ 0.0693 µM), the MIC ([5]; C. albicans 3) was 0.032 µg/mL (≈ 0.0346 µM) and the MFC ([5]; C. albicans 4) was 0.125 µg/mL (≈ 0.135 µM). For the same compound, the MIC ([5]; C. albicans 4) was 0.032 µg/mL (≈ 0.0346 µM), the MFC ([5]; C. albicans 5) was 0.250 µg/mL (≈ 0.271 µM) and the MIC ([5]; C. albicans 5) was 0.016 µg/mL (≈ 0.0173 µM). The MFC ([5]; C. albicans 6) was 0.064 µg/mL (≈ 0.0693 µM), the MIC ([5]; C. albicans 6) was 0.032 µg/mL (≈ 0.0346 µM) and the MFC ([5]; C. albicans 7) was 0.064 µg/mL (≈ 0.0693 µM). The MIC ([5]; C. albicans 7) was 0.032 µg/mL (≈ 0.0346 µM), the MFC ([5]; C. albicans 8) was 0.032 µg/mL (≈ 0.0346 µM) and the MIC ([5]; C. albicans 8) was 0.016 µg/mL (≈ 0.0173 µM). It also gave an MFC ([5]; C. albicans 9) of 0.250 µg/mL (≈ 0.271 µM), an MIC ([5]; C. albicans 9) of 0.125 µg/mL (≈ 0.135 µM) and an MFC ([5]; C. albicans 10) of 0.032 µg/mL (≈ 0.0346 µM). For the same compound, the MIC ([5]; C. albicans 10) was 0.032 µg/mL (≈ 0.0346 µM), the MFC ([5]; C. albicans 11) was 0.250 µg/mL (≈ 0.271 µM) and the MIC ([5]; C. albicans 11) was 0.125 µg/mL (≈ 0.135 µM). For the same compound, the MFC ([5]; C. albicans 12) was 0.016 µg/mL (≈ 0.0173 µM), the MIC ([5]; C. albicans 12) was ≤0.016 µg/mL and the MFC ([5]; C. albicans 13) was 0.125 µg/mL (≈ 0.135 µM). The MIC ([5]; C. albicans 13) was 0.064 µg/mL (≈ 0.0693 µM), the MFC ([5]; C. albicans 14) was 0.125 µg/mL (≈ 0.135 µM) and the MIC ([5]; C. albicans 14) was 0.032 µg/mL (≈ 0.0346 µM). The MFC ([5]; C. albicans 15) was 0.064 µg/mL (≈ 0.0693 µM), the MIC ([5]; C. albicans 15) was 0.032 µg/mL (≈ 0.0346 µM) and the MFC average [6] was 0.11 µg/mL (≈ 0.119 µM). The MIC average [6] was 0.052 µg/mL (≈ 0.0563 µM), the “inhibition rings diameter, average (including 6.0 mm of the disk)” value [7, 10] was 15.4 mm and the “inhibition rings diameter, range (including 6.0 mm of the disk)” value [7, 10] was 10-20.5 mm. The “category of the inhibition rings” value ([7]; all 18 strains, confirmed by microdilution) was ““sensitivity” or “intermediate sensitivity””, the MFC ([8]; C. glabrata 1) was 0.064 µg/mL (≈ 0.0693 µM) and the MIC ([8]; C. glabrata 1) was 0.032 µg/mL (≈ 0.0346 µM). For the same compound, the MFC ([8]; C. glabrata 2) was 0.125 µg/mL (≈ 0.135 µM) and the MIC ([8]; C. glabrata 2) was 0.125 µg/mL (≈ 0.135 µM).

In the case of `CC1=CCC2CC1C2(C)C` (stereo not drawn) [α-pinene], the “advantage when administered in combination with cinnamaldehyde or eugenol” value [9] is reported as “did not show any advantage”.
